Measured values reported in US10688113B2 (priority 2015, dated 2020).

Experiments:
[1] = tested on: corneal mechanical sensitivity (allodynia); assay: Corneal mechanical sensitivity (allodynia), Von Frey filaments, trephine-injured cornea plus capsaicin; type: in vivo, male C57BL/6 mice; conditions: mice, 10 mM topical twice-daily for 5 days, capsaicin 100 μM, vs 1×PBS
Experimental: (§1) During this test, de-epithelialization of the corneal epithelium of the left eye of the mouse is carried out using a 1.5 mm diameter trephine. This surgery is carried out under a surgical microscope. This procedure lasts at most 3 minutes per animal. The depth and surface area of corneal de-epithelialization are standardized and then evaluated by a slit-lamp examination. The advantage of this surgical tool is standardization of the injury. The 8-week-old male C57BL/6 mice thus treated receive a twice-daily treatment for 5 days of the compound of formula I or PBS before the application of capsaicin.
Additional pain is induced by capsaicin (100 μM). Corneal mechanical sensitivity (allodynia) was measured using Von Frey filaments, 5 days after treatment, on mice treated with compound 1 (10 mM), with compound 2 (10 mM) or, for the control group, with 1×PBS (n=5 animals per group). The results obtained are presented in FIG. 6 (y-axis: weight of the Von Frey filament in grams). The histogram on the left (black) represents the response of mice treated with PBS, the histogram in the middle represents the response of mice treated with compound 1 and the histogram on the right represents the response of mice treated with compound 2.

[2] = tested on: capsaicin-induced ocular pain (33 mM); assay: Capsaicin-induced ocular pain, acute treatment (single instillation 15 min before capsaicin); type: in vivo, New Zealand white rabbits; conditions: rabbit, single instillation of 10 mM, 15 min before capsaicin 33 mM; compared with capsazepine 5 mM
Experimental: In order to study the pharmacological activity of the present invention in the case of ocular pain, the compounds of formula (I) were tested using the model of capsaicin-induced ocular pain. In this model, previously used in the literature (Gonzalez et al. (1993) Invest. Ophthalmol. Vis. Sci., 34(12), 3329-3335), in adult rabbits, the number of lid-squeezing movements, the degree of palpebral opening, miotic response and conjunctival vasodilation evoked by a bilateral instillation of 30 μL of capsaicin (33 mM) were measured at different times after administration of the drug. To that end, the responses to this test in eyes pre-treated with various calcium antagonists (diltiazem, verapamil or nifedipine) were compared with those that had received only vehicle.
The procedure and the timing were as follows:
Evaluation of corneal pain by observing conjunctival hyperaemia after pain induction (a single instillation of 1% capsaicin (33 mM) in the right eye) in albino rabbits. Pre-treatment with the compound to be tested, 15 min before capsaicin instillation.

[3] = tested on: LPS-induced bacterial keratitis; assay: LPS-induced inflammation model (corneal scratch, LPS 50 μg) followed by capsaicin instillation; type: in vivo; conditions: mice, LPS 50 μg days 1 and 4, 10 mM twice-daily for 5 days, capsaicin 100 μM on day 5, vs PBS
Experimental: Bacterial lipopolysaccharide (LPS, endotoxin) is a potent stimulator of inflammatory responses and contributes to microbial keratitis and to corneal ulcers (Khatri et al. 2002 Invest. Ophthal. Vis. Sci., 43 2278-2284).
Effect of compound 2 in a model of LPS-induced inflammation (50 μg). A corneal epithelial injury (scratch) is made with a trephine (1.5 mm diameter) in mice, followed by topical treatment with LPS (50 μg, two administrations on days 1 and 4) then twice-daily chronic treatment for 5 days with 1×PBS (control group) or with compound 2 (10 mM) (n=6 animals per group), followed by capsaicin instillation (100 μM) on day 5. The results obtained are presented in FIG. 8 (y-axis: palpebral closure time in seconds). The histogram on the left represents the response of mice treated with PBS, while the histogram on the right represents the response of mice treated with compound 2.

[4] = tested on: capsaicin-induced ocular pain (100 μM); assay: Capsaicin test (100 μM) after chronic twice-daily treatment on trephine-injured cornea; type: in vivo, male C57BL/6 mice; conditions: mice, trephine corneal injury, 10 mM topical twice-daily for 4 days, capsaicin 100 μM 15 min after last instillation; vs PBS
Experimental: The compounds of formula I of the present invention were also tested, in 8-week-old male C57BL/6 mice (JANVIER LABS), using a capsaicin test (100 μM) after twice-daily treatment for 5 days of the compound of formula I on cornea injured beforehand (with a 1.5 mm diameter trephine).
Analgesic effect of compound 2 in the model of capsaicin-induced ocular pain (100 μM). A corneal epithelial injury was made on the right cornea of male C57BL/6 mice (JANVIER LABS) using a 1.5 mm diameter trephine. Once the animals were operated on, a twice-daily topical treatment, for 4 days, is carried out with 1×PBS (5 animals per group) or with 10 mM compound 2 (5 animals per group). On day 4, 15 minutes after the last instillation, 100 μM capsaicin is instilled and the behavioural analysis is performed. The results obtained corresponding to the trephine injury alone before capsaicin are shown in FIG. 5 (y-axis: palpebral closure time in seconds).
as §1, with “The 8-week-old male C57BL/6 mice thus treated receive a twice-daily treatment for 5 days of the compound of formula I or PBS before the application of capsaicin.” left out

[5] = tested on: mechanical allodynia induced by 0.2% BAC; assay: Keratitis induced by chronic instillation of 0.2% benzalkonium chloride (BAC), Von Frey filaments; type: in vivo, male C57BL/6 mice; conditions: mice, 0.2% BAC for 6 days then 10 mM twice-daily for 5 days; vs 1×PBS
From the text: Chronic instillation of 0.2% benzalkonium chloride induces chronic inflammation of the cornea with generation of ocular pain (Launay et al. (2016) Neurobiol. Dis., 88 16-28). This model was used as a model of chemical keratitis.
Study of corneal sensitivity in mice treated twice-daily with compound 2 for 5 days first treated with 0.2% BAC for 6 days. The corneal mechanical sensitivity of male C57BL/6 mice, treated with 0.2% BAC for 6 days, then twice-daily with compound 2 for 5 days, was evaluated at various times using Von Frey filaments, compared with a control group receiving twice-daily 1×PBS (n=10 animals per group). The use of Von Frey filaments (applied to the centre of the cornea of a conscious animal) is perfectly feasible for measuring corneal mechanical allodynia in mice. In the context of dry eye, the technique produces mechanical allodynia in the patient: the simple fact of closing the eyelid induces a painful sensation. Lastly, this behavioural test is most like the one used in human clinical practice (Cochet-Bonnet) to measure corneal mechanical sensitivity.
The results obtained are presented in FIG. 7 (y-axis: weight of the Von Frey filament in grams). The histogram on the left represents the response of mice treated with PBS, while the histogram on the right represents the response of mice treated with compound 2.

[6] = tested on: capsaicin-induced ocular pain; conditions: rabbits, 1 to 28 mM administered 15 minutes before application of capsaicin; cited from earlier work
[7] = tested on: contractile responses to capsaicin; conditions: morphine 5×100 μM; cited from earlier work
[8] = tested on: capsaicin-induced blinking; conditions: cited from earlier work

## C[C@H](NC(=O)[C@H](Cc1ccc(-c2ccccc2)cc1)CP(=O)([O-])[C@H](C)N)C(=O)[O-].[Na+].[Na+] [compound 1]
[1]
  mechanical sensitivity measured with Von Frey filaments: significant decrease
[2]
  analgesic effect on conjunctival hyperaemia following pain induction by capsaicin: superior to the reference product, capsazepine
  analgesic effect on palpebral opening following pain induction by capsaicin: superior to the reference product, capsazepine

## CC(OC(=O)N[C@@H](C)P(=O)([O-])C[C@@H](Cc1ccc(-c2ccccc2)cc1)C(=O)N[C@@H](C)C(=O)[O-])OC(=O)C(C)C.[Na+].[Na+] (stereo partly shown) [compound 2]
[3]
  analgesic effect (cumulative palpebral closure time) in LPS-induced keratitis: very significant analgesic effect (shorter cumulative palpebral closure time)
[1]
  mechanical sensitivity measured with Von Frey filaments: significant decrease
[4]
  analgesic effect (cumulative palpebral closure time) in the capsaicin test: very significant analgesic effect (shorter cumulative palpebral closure time)
[5]
  mechanical allodynia induced by 0.2% BAC (Von Frey filaments): significantly reduced (higher sensitivity threshold)
[2]
  analgesic effect on conjunctival hyperaemia following pain induction by capsaicin: superior to the reference product, capsazepine
  analgesic effect on palpebral opening following pain induction by capsaicin: superior to the reference product, capsazepine

## COc1ccc([C@@H]2Sc3ccccc3N(CCN(C)C)C(=O)[C@@H]2OC(C)=O)cc1 [diltiazem]
[6]
  capsaicin-induced scratching movements, conjunctival hyperaemia, eye closure and elevated aqueous protein concentration: significantly decreased

## CN1CC[C@]23c4c5ccc(O)c4O[C@H]2[C@@H](O)C=C[C@H]3[C@H]1C5 [morphine]
[7]
  contractile responses to capsaicin: partially inhibited
[8]; applied to healthy, non-inflamed rat cornea
  blinking, healthy non-inflamed rat cornea: no effect on blinking
[8]; rats, topical application of a drop, 5 μM
  capsaicin-induced blinking: attenuates capsaicin-induced blinking in a concentration-dependent manner
